Laboratory results published in patent US9206199B2, “Inhibitors of the renal outer medullary potassium channel” (Merck Sharp & Dohme Corp., priority 2011, dated 2015).
pIC50: −log10 of the molar value. Like-named read-outs stand apart in the source and are kept apart here.

Tests used:
[1] = molecular target: hROMK (hKir1.1) (Homo sapiens (Human), UniProt P48048); experiment: Thallium Flux Assay; assay type: cell-based
Procedure: At >80% confluency, aspirate the media from the flask and rinse with 10 mL Calcium/Magnesium-free PBS. […] To dislodge the cell, gently bang the side of the flask with your hand. Triturate the cells completely and then transfer the cells to 25 mL complete media. Centrifuge at 1,500 rpm for 6 min followed by resuspension in complete growth media and determine cell concentration. […] Under ideal growth conditions and appropriate tissue culture practices, this cell line is stable for 40-45 passages. FluxOR Kit Components (Invitrogen F10017) • FluxOR™ Reagent (Component A) • FluxOR™ Assay Buffer (Component B)—10× Concentrate • PowerLoad™ Concentrate (Component C)—100× Concentrate • Probenecid (Component D)—Lyophilized sample is kept at −20° C. Water soluble, 100× after solubilization in 1 mL water. […] Store at 4° C. • Thallium sulfate (Tl2SO4) Concentrate (Component G)—50 mM in water. […]
The fluorescence intensity of wells containing 3 μM of a standard control ROMK inhibitor of the present invention is used to define the ROMK-sensitive component of thallium flux. Fluorescence in the presence of test compounds is normalized to control values to provide % fluorescence change.

[2] = molecular target: Kir1.1 (ROMK1) (Homo sapiens (Human), UniProt P48048); experiment: Electrophysiology Assay (IonWorks Quattro whole cell voltage clamp)
Kir1.1 (ROMK1), sequence (P48048 whole entry): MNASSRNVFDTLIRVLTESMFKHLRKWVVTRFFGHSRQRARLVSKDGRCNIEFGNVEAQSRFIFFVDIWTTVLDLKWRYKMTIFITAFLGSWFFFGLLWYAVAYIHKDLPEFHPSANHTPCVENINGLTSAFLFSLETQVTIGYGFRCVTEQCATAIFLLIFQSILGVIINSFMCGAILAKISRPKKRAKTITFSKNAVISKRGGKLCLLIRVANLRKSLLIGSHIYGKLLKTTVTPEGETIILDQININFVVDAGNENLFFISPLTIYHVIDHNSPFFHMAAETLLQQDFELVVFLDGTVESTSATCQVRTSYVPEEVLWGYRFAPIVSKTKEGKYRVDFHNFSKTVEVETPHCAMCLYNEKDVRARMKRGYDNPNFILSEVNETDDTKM
Procedure: Chinese hamster ovary cells stably expressing Kir1.1 channels were maintained in T-75 flasks in cell culture media in a humidified 10% CO2 incubator at 37° C. Prior to an experiment, Kir1.1 expression was induced by overnight incubation with 1 mM sodium butyrate. […] After centrifugation, the cell pellet was resuspended in approximately 4.0 mL of bath solution and placed in the IonWorks instrument. The intracellular solution consisted of (in mM): 80 K gluconate, 40 KCl, 20 KF, 3.2 MgCl2, 3 EGTA, 5 Hepes, pH 7.4. Electrical access to the cytoplasm was achieved by perforation in 0.13 mg/mL amphotericin B for 4 min. […] Voltage protocols and current recordings were performed using the IonWorks HT software/hardware system. Currents were sampled at 1 kHz. No correction for liquid junction potentials was used. The test pulse, consisting of a 100 ms step to 0 mV from a holding potential of −70 mV, followed by a 100 ms voltage ramp from −70 mV to +70 mV, was applied before and after a 6 min compound incubation period. Test compounds were prepared by diluting DMSO stock solutions into the bath solution at 3× the final concentration and placed in the instrument in 96-well polypropylene plates. Current amplitudes were measured using the IonWorks software.

hROMK (hKir1.1), sequence (P48048 whole entry): as above

Q: How did the pIC50 ([1]; HEK293 cells stably expressing hROMK (hKir1.1), FLIPR-Tetra, read-out: Thallium Flux IC50) turn out when `N#Cc1cc([C@@H]2CN3CCN(C(=O)Cc4cnc(-n5cnnn5)nc4)C[C@H]3CO2)ccc1F` [Example 142, 2-fluoro-5-[(3R,9aS)-8-{[2-(1H-tetrazol-1-yl)pyrimidin-5-yl]acetyl}octahydropyrazino[2,1-c][1,4]oxazin-3-yl]benzonitrile] was run?
A: Its pIC50 is 7.00.

Q: `Cc1nc(-n2cnnn2)ccc1CC(=O)N1CCN2C[C@H](c3ccc(F)c(C#N)c3F)OC[C@@H]2C1` [Example 89, 2,6-difluoro-3-[(3S,9aS)-8-{[2-methyl-6-(1H-tetrazol-1-yl)pyridin-3-yl]acetyl}octahydropyrazino[2,1-c][1,4]oxazin-3-yl]benzonitrile] was tested. Which pIC50 [1] did it give?
A: The pIC50 was 7.15.

Q: With `O=C1OCCc2cc([C@@H]3CN4CCN(C(=O)Cc5ccc(-n6cnnn6)nc5)C[C@H]4CO3)ccc21` [Example 1] as the molecule, how does the pIC50 [2] read?
A: Its pIC50 is 7.22.
